Measured values taken from ChEMBL document CHEMBL1141912, “Novel beta-(imidazol-4-yl)-beta-amino acids: solid-phase synthesis and study of their inhibitory activity against geranylgeranyl protein transferase type I” (Bioorg Med Chem Lett, 2005).

biological target: T1, Geranylgeranyl transferase type I (Homo sapiens, UniProt P49354+P53609); experiment: Inhibition of Geranylgeranyl transferase type I; assay type: protein-complex assay

IC50 | SMILES
150 nM | COC(=O)C(CC(C)C)NC(=O)c1ccc(NCC(N)CS)cc1-c1cccc2ccccc12 (centres undefined)
1070 nM | CCCCOc1ccc(S(=O)(=O)N(CCc2ccc(F)cc2)C(CC(=O)O)c2cnc[nH]2)cc1 (centres undefined)
1070 nM | O=C(O)CC(c1cnc[nH]1)N(CCc1cccs1)Cc1ccc(-c2ccccc2)cc1 (centres undefined)
1100 nM | O=C(O)CC(c1cnc[nH]1)N(CCc1ccc(F)cc1)Cc1ccc(-c2ccccc2)cc1 (centres undefined)
860 nM | O=C(O)CC(c1cnc[nH]1)N(CCCCc1ccccc1)Cc1ccc(Oc2ccccc2)cc1 (centres undefined)
460 nM | Fc1ccc(CCN(Cc2ccc(Oc3ccccc3)cc2)Cc2c[nH]cn2)cc1
256 nM | Brc1ccc(CCN(Cc2ccc(Oc3ccccc3)cc2)Cc2c[nH]cn2)cc1
90 nM | O=C(O)CC(c1cnc[nH]1)N(CCc1ccc(F)cc1)Cc1ccc(Oc2ccccc2)cc1 (centres undefined)

biological target: T1, Geranylgeranyl transferase type I; experiment: Percent inhibition of Geranylgeranyl transferase type I at 10 uM; assay type: protein-complex assay

inhibition | SMILES
23% | c1cncc(CN(Cc2c[nH]cn2)Cc2ccco2)c1
11% | O=C(O)CC(c1c[nH]cn1)N(CCc1cccs1)Cc1ccccn1 (centres undefined)
3% | CCCCCCN(Cc1nc[nH]n1)C(CC(=O)O)c1c[nH]cn1 (centres undefined)
21% | O=C(O)CC(NC1CCN(Cc2ccccc2)CC1)c1c[nH]cn1 (centres undefined)
18% | O=C(O)CC(c1c[nH]cn1)N(CC(c1ccccc1)c1ccccc1)C1CCN(Cc2ccccc2)C1 (centres undefined)
35% | O=C(O)CC(c1c[nH]cn1)N(CCc1ccc(F)cc1)Cc1c[nH]c(-c2ccccc2)n1 (centres undefined)
16% | O=C(O)CC(c1c[nH]cn1)N(CCc1cccs1)Cc1nc[nH]n1 (centres undefined)
69% | Brc1ccc(CCN(Cc2ccc3ccccc3c2)Cc2c[nH]cn2)cc1
0% | O=C(O)CC(c1c[nH]cn1)N(CCCCCCO)CC(c1ccccc1)c1ccccc1 (centres undefined)
40% | CCCCCCCN(Cc1ccc(Oc2ccccc2)cc1)Cc1c[nH]cn1
78% | CCCCOc1ccc(S(=O)(=O)N(CCc2ccc(F)cc2)C(CC(=O)O)c2c[nH]cn2)cc1 (centres undefined)
0% | O=C(O)CC(c1c[nH]cn1)N(CCCCCCO)Cc1c[nH]c(-c2ccccc2)n1 (centres undefined)
24% | Cc1ccccc1CN(Cc1ccc(C(C)(C)C)cc1)Cc1c[nH]cn1
10% | CC(C)CCN(Cc1ccccn1)C(CC(=O)O)c1c[nH]cn1 (centres undefined)
53% | O=C(O)CC(c1c[nH]cn1)N(CCc1ccc(F)cc1)S(=O)(=O)c1cc(Cl)sc1Cl (centres undefined)
21% | O=C(O)CC(c1c[nH]cn1)N(CC1CCCCC1)S(=O)(=O)c1cc(Cl)sc1Cl (centres undefined)
74% | O=C(O)CC(c1c[nH]cn1)N(CCCc1ccccc1)Cc1cccc2ccccc12 (centres undefined)
77% | Brc1ccc(CCN(Cc2ccc(-c3ccccc3)cc2)Cc2c[nH]cn2)cc1
78% | Fc1ccc(CCN(Cc2ccc(Oc3ccccc3)cc2)Cc2c[nH]cn2)cc1
30% | CCCCOc1ccc(S(=O)(=O)N(CC2CCCCC2)C(CC(=O)O)c2c[nH]cn2)cc1 (centres undefined)
72% | Cc1ccc(CCN(Cc2ccc(Oc3ccccc3)cc2)Cc2c[nH]cn2)cc1
88% | Brc1ccc(CCN(Cc2ccc(Oc3ccccc3)cc2)Cc2c[nH]cn2)cc1
8% | O=C(O)CC(c1c[nH]cn1)N(Cc1nc[nH]n1)CC1CCCCC1 (centres undefined)
11% | O=C(O)CC(c1c[nH]cn1)N(Cc1nc[nH]n1)C1CCN(Cc2ccccc2)CC1 (centres undefined)

biological target: Protein farnesyltransferase (Homo sapiens, UniProt P49354+P49356); experiment: Inhibition of Farnesyltransferase; assay type: protein-complex assay

IC50 | SMILES
> 10000 nM | Fc1ccc(CCN(Cc2ccc(Oc3ccccc3)cc2)Cc2c[nH]cn2)cc1
> 10000 nM | Brc1ccc(CCN(Cc2ccc(Oc3ccccc3)cc2)Cc2c[nH]cn2)cc1
